Experimental data as given in the supplement of paper PMC10307832.

Columns and labels:
Test in all cases: relative viability (nuclei count vs DMSO), 5 days (fraction); higher = more cells survive
[1] = compound: COc1ccc(-c2ccc3c(N4CCOC[C@@H]4C)nc(N4CCOC[C@@H]4C)nc3n2)cc1CO [AZD8055] + Nc1nc2[nH]cc(CCc3ccc(C(=O)N[C@@H](CCC(=O)O)C(=O)O)cc3)c2c(=O)[nH]1 [Pemetrexed] (partner 0.2 µM)
Summary of the method: (§1)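 Relative viability divides the nuclei count in treated wells by that in vehicle wells. Lung cancer cell lines were seeded in 1536-well plates, dosed by pin tool the next day, and fixed and stained after 5 days in one step with final 0.05% Triton X-100, 1% formaldehyde and 1 ug/ml Hoechst. Dosing was a single drug or a fixed anchor-drug dose plus five library-drug doses (not always all listed) in √10 steps, and values are medians of duplicate plates imaged at 4×.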

[2] = compound: COc1ccc(-c2ccc3c(N4CCOC[C@@H]4C)nc(N4CCOC[C@@H]4C)nc3n2)cc1CO [AZD8055] + CC1(C)CCC(c2ccc(Cl)cc2)=C(CN2CCN(c3ccc(C(=O)NS(=O)(=O)c4ccc(N[C@H](CCN5CCOCC5)CSc5ccccc5)c(S(=O)(=O)C(F)(F)F)c4)cc3)CC2)C1 [Navitoclax] (partner 0.5 µM)
Summary of the method: as §1

[3] = compound: COc1ccc(-c2ccc3c(N4CCOC[C@@H]4C)nc(N4CCOC[C@@H]4C)nc3n2)cc1CO [AZD8055] + C[C@]1(O)C[C@@H](c2nc(-c3ccc4ccc(-c5ccccc5)nc4c3)c3c(N)nccn32)C1 [Linsitinib] (partner 1 µM)
Summary of the method: as §1

[4] = compound: COc1ccc(-c2ccc3c(N4CCOC[C@@H]4C)nc(N4CCOC[C@@H]4C)nc3n2)cc1CO [AZD8055] + O=C(CCCCCCC(=O)Nc1ccccc1)NO [Vorinostat] (partner 1 µM)
Summary of the method: as §1

Cell Line | relative viability ([1]; first compound 0.01 µM) | relative viability ([1]; first compound 0.03162 µM) | relative viability ([1]; first compound 0.1 µM) | relative viability ([1]; first compound 0.3162 µM) | relative viability ([1]; first compound 1 µM) | relative viability ([2]; first compound 0.01 µM) | relative viability ([2]; first compound 0.03162 µM) | relative viability ([2]; first compound 0.1 µM) | relative viability ([2]; first compound 0.3162 µM) | relative viability ([2]; first compound 1 µM) | relative viability ([3]; first compound 0.01 µM) | relative viability ([3]; first compound 0.03162 µM) | relative viability ([3]; first compound 0.1 µM) | relative viability ([3]; first compound 0.3162 µM) | relative viability ([3]; first compound 1 µM) | relative viability ([4]; first compound 0.01 µM) | relative viability ([4]; first compound 0.03162 µM) | relative viability ([4]; first compound 0.1 µM) | relative viability ([4]; first compound 0.3162 µM) | relative viability ([4]; first compound 1 µM)
NCI-H520 | 0.636 | 0.307 | 0.245 | 0.182 | 0.144 | 0.928 | 0.612 | 0.359 | 0.21 | 0.176 | 0.954 | 0.504 | 0.198 | 0.153 | 0.164 | 0.621 | 0.406 | 0.242 | 0.188 | 0.154
NCI-H596 | 0.452 | 0.456 | 0.409 | 0.402 | 0.443 | 0.975 | 0.67 | 0.369 | 0.288 | 0.241 | 0.991 | 0.792 | 0.457 | 0.386 | 0.395 | 0.565 | 0.567 | 0.441 | 0.455 | 0.428
NCI-H647 | 0.207 | 0.155 | 0.133 | 0.166 | 0.122 | 1.35 | 1.03 | 0.637 | 0.391 | 0.219 | 1.18 | 0.942 | 0.601 | 0.439 | 0.167 | 0.81 | 0.416 | 0.308 | 0.152 | 0.114
NCI-H838 | 0.228 | 0.236 | 0.231 | 0.18 | 0.201 | 0.985 | 0.627 | 0.347 | 0.358 | 0.305 | 0.664 | 0.383 | 0.32 | 0.208 | 0.25 | 0.695 | 0.577 | 0.447 | 0.428 | 0.346
